Assay [1] deals with HL-60. Description: Cytotoxicity against human HL60 cells after 48 hrs by trypan blue exclusion method. In kind it is functional, cell-based.
The nature of assay [2]: Antitumor activity against human MV522 cells xenografted BALB/c nu/nu mouse assessed as increase in life span at 10 mg/kg, iv administered three times per week for 3 weeks. In kind it is functional. Background: Xenograft models place foreign cells or tissue in a host animal.
The test system of assay [3] is MV522. The assay can be described thus: Antitumor activity against human MV522 cells xenografted BALB/c nu/nu mouse assessed as induction of tumor regression at 10 mg/kg, iv administered three times per week for 3 weeks. In kind it is functional, organism-based. On the set-up: dose 10 mg/kg.
Setting [4] is: Homo sapiens, HL-60, 48 h, read-out: IC50.

Molecules are shown by their SMILES. Active and inactive are the calls of the source. No cut-off for these calls is given here.

As usually defined, the IC50 is the concentration at which inhibition is half-maximal. Consider `COc1ccc(CC2=C(C)C=C3C(=O)[C@](C)(O)C4(CC4)C(C)=C32)cc1`, for which, in assay [1] (setting [4]), the IC50 was determined as 1050 nM.
For the molecule `CC1=C(CSc2ccc(C)cc2)C2=C(C)C3(CC3)[C@@](C)(O)C(=O)C2=C1`, the IC50 result in assay [1] (hl-60) is given as “ND(Insoluble)”.
As to `CC1=C(Cc2ccc(O)cc2)C2=C(C)C3(CC3)[C@@](C)(O)C(=O)C2=C1`, in assay [1] (setting [4]), the IC50 was 380 nM.
On the same count and under the same terms, with `CC1=CC2=C(C)C3(CC3)[C@@](C)(O)C(=O)C2=C1` [ACYLFULVENE] the figure was 415 nM; with `CC1=C2C(=O)C(C)(C)C=C2C(=O)[C@](C)(O)C12CC2` [DEHYDROILLUDIN M], 296 nM.
As to `CC1=C(CO)C2=C(C)C3(CC3)[C@@](C)(O)C(=O)C2=C1` [IROFULVEN], the IC50 in assay [1] (setting [4]) was 73 nM. Also, in assay [2], the Activity is recorded as 150%. In assay [3], the result was Active.

The values above are taken from ChEMBL document CHEMBL1158296, “(Hydroxymethyl)acylfulvene: an illudin derivative with superior antitumor properties” (J Nat Prod, 1996).
